Laboratory results published in paper PMC9138994 (Biomolecules, 2022).
Marks after values point to notes of the source that are not given here.

Experiments:
[1] = tested on: H3R; design: method as in earlier work; details: ref 19 (Vanover et al.); cited from earlier work
[2] = target: T1, human 5-HT6 (Homo sapiens, UniProt P50406); experiment: Radioligand displacement assay at 5-HT6 ([3H]-LSD, HEK293 cells); type: binding; details: HEK293 cells stably expressing h5-HT6, read-out: Ki ± SD (n), 5-HT6
T1 construct: expressed in transfected cells; host or cells: HEK293
Experimental: HEK293 cells with a stable expression of human 5-HT1A, 5-HT6, 5-HT7b, and D2L (prepared with the use of Lipofectamine 2000), or CHO-K1 cells with plasmids containing the sequence coding for the human serotonin 5-HT2A receptor (PerkinElmer), were maintained at 37 °C in a humidified atmosphere with 5% CO2 and grown in Dulbecco’s Modified Eagle Medium containing 10% dialyzed fetal bovine serum and 500 µg/mL G418 sulfate. For membrane preparation, cells were subcultured in 150 cm^2 flasks, grown to 90% confluence, washed twice with prewarmed to 37 °C phosphate buffered saline (PBS) and pelleted by centrifugation (200× g) in PBS containing 0.1 mM EDTA and 1 mM dithiothreitol. Prior to membrane preparation, the pellets were stored at −80 °C.
Cell pellets were thawed and homogenized in 10 volumes of assay buffer using an Ultra Turrax tissue homogenizer, and were then centrifuged twice at 35,000× g for 15 min at 4 °C, with incubations for 15 min at 37 °C in between. […] The process of equilibration was terminated by rapid filtration through Unifilter plates with a 96-well cell harvester and the radioactivity retained on the filters was quantified on a Microbeta plate reader (PerkinElmer, Waltham, MA, USA). […] The inhibition constants (Ki) were calculated from the Cheng-Prusoff equation [38]. Results are expressed as means of two separate experiments.

[3] = tested on: C57BL/6 mice; experiment: Forced swim test (FST); type: in vivo; details: for immobility time in FST: acute i.p. pretreatment, ST-2300 or PIM 5, 10, 15 mg/kg, vs saline controls, adult male C57BL/6 mice, 6 min
Experimental: (§1) Inbred adult male C57BL/6 mice (aged 10–12 weeks and weighing 20–25 g) were obtained from the animal facility in the College of Medicine and Health Sciences, United Arab Emirates University. The animals were maintained in a separate air-conditioned room with controlled temperature and humidity (24 ± 2 °C and 55 ± 15%, respectively), with a 12 h light/dark cycle, and ad libitum to food and water. All the experiments were performed between 9.00 am and 3.00 pm. The procedures were approved by the Institutional Animal Ethics Committee of College of Medicine and Health Sciences/United Arab Emirates University (Approval No. ERA-2019-6010). To reduce the suffering of the animals, a minimum number of animals were used in this study, whereas the objectives were not compromised.
(§2) These experiments provide the first behavioral assessment of the ST-2300 in anxiety-like and depression-like behaviors in mice. All doses are expressed in terms of the free base of all test compounds. The drugs used in the current study were dissolved in saline and injected i.p. at a volume of 1 mL/kg. All experimental procedures were conducted in a blinded fashion in which the experimenter was uninformed about the specific treatment groups to which an animal group belonged. Saline, ST-2300 (5, 10, and 15 mg/kg), PIM (5, 10, and 15 mg/kg), FLX (10 mg/kg), RAM (10 mg/kg), and DZP (1 mg/kg) were injected i.p. 30–45 min before the beginning of the behavioral experiments.
The FST test was performed according to previously described protocols. Mice were individually placed into glass cylinders containing 15 cm of water at ∼25 °C. The mice were left in the cylinders for 6 min and immobility was observed and analyzed. The mice were then removed from the container and left to dry in a heated enclosure before being returned to their home cages. The mice were considered to be immobile when they ceased struggling and remained floating motionless in the water (without any vertical or horizontal movements), making only the movements necessary to keep their heads above the water level as described previously.

[4] = tested on: C57BL/6 mice; experiment: Tail suspension test (TST); type: in vivo; details: for immobility time in TST: acute i.p. pretreatment, ST-2300 10 or 15 mg/kg, PIM 5–15 mg/kg, FLX 10 mg/kg, vs saline controls, C57BL/6 mice, 6 min
Experimental: as §1, §2
This experimental protocol was followed as previously described, however with slight modifications. Each mouse was suspended on the edge of a rod 50 cm above a table top using adhesive Scotch tape placed approximately 1 cm from the tip of the tail. Tail climbing was prevented by passing the mouse’s tail through a small plastic cylinder prior to suspension, as described by Can et al.. The duration of immobility was manually scored for a 6 min observation period. Mice were considered immobile only when they hung down passively and were completely motionless. The parameter recorded was the number of seconds spent immobile.

[5] = ST-2300 10 mg/kg i.p. co-administered with H3R agonist RAM 10 mg/kg i.p., vs ST-2300 alone

T1 sequence (P50406 whole entry): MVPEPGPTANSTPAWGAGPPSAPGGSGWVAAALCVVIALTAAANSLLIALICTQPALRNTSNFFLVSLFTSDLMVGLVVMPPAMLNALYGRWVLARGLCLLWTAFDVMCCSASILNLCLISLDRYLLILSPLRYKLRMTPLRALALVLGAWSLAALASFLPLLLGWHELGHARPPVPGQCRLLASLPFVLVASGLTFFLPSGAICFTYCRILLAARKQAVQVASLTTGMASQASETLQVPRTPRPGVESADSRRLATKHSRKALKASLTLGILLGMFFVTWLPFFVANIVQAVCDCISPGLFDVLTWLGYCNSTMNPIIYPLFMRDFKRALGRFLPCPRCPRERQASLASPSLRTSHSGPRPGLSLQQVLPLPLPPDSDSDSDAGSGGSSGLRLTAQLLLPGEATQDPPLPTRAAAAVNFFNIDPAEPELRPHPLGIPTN

Structure (SMILES)	inhibition at 10 µM, H3R [1]	Ki [2] [µM]	immobility time in FST [3]	immobility time in TST [4]	immobility time in FST, co-administration of RAM [3, 5]	immobility time in TST, co-administration of RAM [4, 5]
CC(C)COc1ccc(CNC(=O)N(Cc2ccc(F)cc2)C2CCN(C)CC2)cc1 [Pimavanserin, reference compound]	inhibition at 10 µM: <50% ^a	0.059 ± 0.011	significant and dose-dependent decrease of immobility time	failed to affect the overall immobility time	–	–
CN1CCC(N(Cc2ccc(F)cc2)C(=O)NCc2ccc(OCCCN3CCCCC3)cc2)CC1 [ST-2300, 1-(4-Fluorobenzyl)-1-(1-methylpiperidin-4-yl)-3-{4-[3-(piperidin-1-yl)propoxy]benzyl}urea]	–	> 10	significant and dose-dependent decrease of immobility time	significantly reduced the immobility time	significant increase of immobility time	reversed by systemic co-administration with the CNS-penetrant H3R agonist RAM
